Laboratory results taken from patent US10058534B2, “Benzothiophene derivatives and compositions thereof as selective estrogen receptor degraders” (NOVARTIS AG, priority 2013, dated 2018).
Where two headings read alike, the source gives them in different places.

How the values were obtained:
[1] = biological target: ER (endogenous, MCF7 cells) (Homo sapiens (Human), UniProt P03372); experiment: ER transcription assay (MCF7 cells), ERE-luciferase reporter; assay type: cell-based
Text: ER Transcription Assay (MCF7 Cells)
The ER transcription assay is a reporter assay that is based on the ability of ER to induce transcription from a luciferase reporter gene containing estrogen response elements (EREs) in the promoter/enhancer region. When the reporter gene is transfected in MCF7 cells (containing endogenous ER), transcription is reflected by the level of luciferase expression.
A day before transfection, cells are split into a T75 flask at a cell density of 300,000 cells/mL (10 mL total) and allowed to attach overnight in a humidified CO2 incubator at 37° C.
Approximately 20 ug DNA is mixed in OptiMEM (Invitrogen) to a total volume of 650 μL. Following incubation, the OptiMEM-DNA mixture is added to the OptiMEM-Lipofectin mix and incubated for 15 minutes at 37° C. The DNA-Lipofectin mixture is then added directly to the T75 flask and the flask is returned to the incubator.
Normally, DMSO (used as a vehicle) is included to achieve a final concentration of 0.1% when added to the cells. Transfected cells are trypsinized, resuspended in DMEM/F12/10% charcoal-stripped serum and added to the 96-well plate at 25,000 cells/well in 90 μL of media. The plate is then returned to the incubator for 24 hours.
After incubation with compounds for 24 hours, Firefly and Renilla luciferase activities are measured to determine ER transcriptional activity. Media is removed from 96-well plates by decanting and blotting on paper towels.
One second total read time after a one second delay.
One second total read time after one second delay. If Firefly luciferase signal is high, Renilla assay must be done an hour after the Firefly assay due to incomplete squelching of Firefly signal.
(§1) The column titled MCF7 IC50 reports the inflection point of the inhibition of transcription in MCF7 cells as described above. Percentage ERα remaining reports the remaining ERα protein measured at 10 μM concentration of the ligand as described above. The column ERα IC50 reports the inflection point of the degradation in response to the ligand concentration.

ERα = ERα (Homo sapiens (Human), UniProt P03372); experiment: ERα degradation (MCF7 cells), in-cell Western; assay type: cell-based; conditions: for IC50: inflection point of the degradation in response to ligand concentration; for IC50 / % ERα remaining: MCF7 cells; for % ERα remaining: remaining ERα protein at 10 μM ligand, relative to DMSO control
ERα, sequence (P03372 whole entry): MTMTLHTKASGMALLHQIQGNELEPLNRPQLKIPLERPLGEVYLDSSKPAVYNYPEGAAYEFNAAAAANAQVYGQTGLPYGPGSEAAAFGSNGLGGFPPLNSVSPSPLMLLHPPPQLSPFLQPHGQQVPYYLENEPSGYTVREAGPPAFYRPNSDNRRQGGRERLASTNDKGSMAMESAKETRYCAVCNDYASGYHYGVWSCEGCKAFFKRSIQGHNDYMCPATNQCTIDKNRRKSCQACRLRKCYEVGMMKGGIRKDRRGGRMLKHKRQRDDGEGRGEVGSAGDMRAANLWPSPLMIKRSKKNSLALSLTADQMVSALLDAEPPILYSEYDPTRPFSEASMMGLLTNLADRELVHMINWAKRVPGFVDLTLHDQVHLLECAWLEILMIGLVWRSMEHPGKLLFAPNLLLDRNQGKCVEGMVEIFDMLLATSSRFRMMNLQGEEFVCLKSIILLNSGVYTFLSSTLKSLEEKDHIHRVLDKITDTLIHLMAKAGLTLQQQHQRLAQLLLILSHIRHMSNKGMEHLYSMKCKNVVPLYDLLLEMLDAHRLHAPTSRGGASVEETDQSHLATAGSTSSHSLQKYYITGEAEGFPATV
Experimental: ERα Degradation (MCF7 Cells)
as §1

[2] = inflection point of the inhibition of transcription in MCF7 cells, 0.1 nM estradiol, 24 hours, read-out: MCF7 IC50

ER (endogenous, MCF7 cells), sequence (P03372 whole entry): as above

Row | SMILES | IC50 [1, 2] | IC50 (ERα) | % ERα remaining (ERα) | IC50 ([1]; antagonist activity, comparison of linker length between phenyl and -C(O)OH, read-out: SERD IC50 MCF7) | ER Percentage remaining (ERα; degradation potential, comparison of linker length between phenyl and -C(O)OH)
1 | CC(C)c1ccccc1-c1sc2cc(O)ccc2c1Nc1ccc(/C=C/C(=O)O)cc1 [Example 118, (E)-3-(4-((6-hydroxy-2-(2-isopropylphenyl)benzo [b]thiophen-3-yl)amino)phenyl)acrylic acid] | 68 nM | 2.8 nM | 14% | – | –
2 | CC/C(=C\c1ccc(Oc2c(-c3ccc(O)cc3)sc3cc(O)ccc23)cc1)C(=O)O [Example 114, (E)-2-(4-((6-hydroxy-2-(4-hydroxyphenyl)benzo [b]thiophen-3-yl)oxy)benzylidene) butanoic acid] | 216 nM | 6.4 nM | 35% | – | –
3 | [C-]#[N+]c1ccccc1-c1sc2cc(O)ccc2c1Oc1ccc(/C=C/C(=O)O)cc1 [Example 24, (E)-3-(4-((6-hydroxy-2-(2-isocyanophenyl)-benzo[b]thiophen-3-yl)oxy)phenyl)acrylic acid] | 2580 nM | 33 nM | 22% | – | –
4 | O=C(O)/C=C/c1ccc(Oc2c(-c3ccccc3C3CCC3)sc3cc(O)ccc23)cc1 [Example 89, (E)-3-(4-((2-(2-cyclobutylphenyl)-6-hydroxybenzo[b]thiophen-3-yl)oxy)phenyl)acrylic acid] | 19 nM | 0.5 nM | 18% | – | –
5 | CCOC(=O)/C=C/c1ccc(Oc2c(-c3ccc(O)cc3)sc3cc(O)ccc23)cc1OC [Example 43, (E)-ethyl 3-(4-((6-hydroxy-2-(4-hydroxyphenyl)benzo[b]thiophen-3-yl)oxy)-2-methoxyphenyl)acrylate] | 10000 nM | – | 41% | – | –
6 | COCCC(=O)Oc1ccc2c(Oc3ccc(/C=C/C(=O)O)cc3)c(-c3ccccc3C(C)C)sc2c1 [Example 83, (E)-3-(4-((2-(2-isopropylphenyl)-6-((3-methoxypropanoyl)oxy)benzo[b]thiophen-3-yl)oxy)phenyl)acrylic acid] | 15 nM | – | 13% | – | –
7 | CCCc1nnc(/C=C/c2ccc(Oc3c(-c4ccccc4C(C)C)sc4cc(O)ccc34)cc2)o1 [Example 103, (E)-2-(2-isopropylphenyl)-3-(4-(2-(5-propyl-1,3,4-oxadiazol-2-yl)vinyl)phenoxy)benzo [b]thiophen-6-ol] | 12 nM | 3.3 nM | 31% | – | –
8 | Cn1cnc(/C=C/c2ccc(Oc3c(-c4ccc(O)cc4)sc4cc(O)ccc34)cc2)c1 [Example 73, (E)-2-(4-hydroxyphenyl)-3-(4-(2-(1-methyl-1H-imidazol-4-yl)vinyl)phenoxy)benzo[b]thiophen-6-ol] | 125 nM | 17 nM | 47% | – | –
9 | CC(C)c1ccccc1-c1sc2cc(O)ccc2c1Oc1ccc(CCC(=O)O)cc1 [Example 93, 3-(4-((6-hydroxy-2-(2-isopropylphenyl)benzo [b]thiophen-3-yl)oxy)phenyl)propanoic acid] | 72 nM | 1.6 nM | 25% | – | –
10 | Cn1ccc2c(-c3sc4cc(O)ccc4c3Oc3ccc(/C=C/C(=O)O)cc3)cccc21 [Example 133, (E)-3-(4-((6-hydroxy-2-(1-methyl-1H-indol-4-yl)benzo[b]thiophen-3-yl)oxy)phenyl)acrylic acid] | 898 nM | – | 17% | – | –
11 | C[C@@H](O)c1ccccc1-c1sc2cc(O)ccc2c1Oc1ccc(/C=C/C(=O)O)cc1 [Example 116, (R,E)-3-(4-((6-hydroxy-2-(2-(1-hydroxyethyl)phenyl)benzo[b]thiophen-3-yl)oxy)phenyl)acrylic acid] | 306 nM | 12 nM | 24% | – | –
12 | CC(C)c1ccccc1-c1sc2cc(O)ccc2c1Oc1ccc(/C=C/C(=O)OCCN2CCOCC2)cc1 [Example 138, (E)-2-morpholinoethyl 3-(4-((6-hydroxy-2-(2-isopropylphenyl)benzo [b]thiophen-3-yl)oxy)phenyl)acrylate] | 5.8 nM | – | 24% | – | –
13 | O=C(O)CCCc1ccc(Oc2c(-c3ccc(O)cc3)sc3cc(O)ccc23)cc1 [reference compound] | – | – | – | 10000 nM | 55 Percentage
14 | CC(C)c1ccccc1-c1sc2cc(O)ccc2c1Oc1ccc(/C=C/c2nnc(C3CC3)o2)cc1 [Example 104, (E)-3-(4-(2-(5-cyclopropyl-1,3,4-oxadiazol-2-yl)vinyl)phenoxy)-2-(2-isopropylphenyl)benzo [b]thiophen-6-ol] | 32 nM | – | 29% | – | –
15 | CCCc1nnc(/C=C/c2ccc(Oc3c(-c4ccccc4C(C)C)sc4cc(O)ccc34)cc2)[nH]1 [Example 107, (E)-2-(2-isopropylphenyl)-3-(4-(2-(5-propyl-4H-1,2,4-triazol-3-yl)vinyl)phenoxy)benzo [b]thiophen-6-ol] | 66 nM | 4 nM | 29% | – | –
16 | O=C(O)/C=C/c1ccc(Oc2c(-c3ccccc3C3CCCC3)sc3cc(O)ccc23)cc1 [Example 87, (E)-3-(4-((2-(2-cyclopentylphenyl)-6-hydroxybenzo[b]thiophen-3-yl)oxy)phenyl)acrylic acid] | 14 nM | 0.4 nM | 15% | – | –
17 | Cc1cccc(C(C)C)c1-c1sc2cc(O)ccc2c1Oc1ccc(/C=C/C(=O)O)cc1 [Example 124, (E)-3-(4-((6-hydroxy-2-(2-isopropyl-6-methylphenyl)benzo[b]thiophen-3-yl)oxy)phenyl)acrylic acid] | 114 nM | 1.4 nM | 10% | – | –
